Source: patent publication US20060014231A1, “Methods and compositions to promote bone homeostasis” (priority 2004, published 2006)

Legend:
NR1H2 = target: T1, NR1H2 (Homo sapiens, UniProt P55055); experiment: Alkaline phosphatase (AP) assay in MPCs infected with Ad-NR1H2 and treated with ligand; format: cell-based; conditions: MPCs infected with Ad-NR1H2, increasing ligand concentrations, MUP readout after 7, 10 and 13 days
T1 construct: amplification of the complete open reading frame from ATG start codon to the stop codon of drugable genes; expressed in transfected cells; host or cells: primary human bone-marrow MPCs, adenoviral transduction (Ad5-NR1H2 with Ad-hCAR)
T1 sequence (P55055 1-460): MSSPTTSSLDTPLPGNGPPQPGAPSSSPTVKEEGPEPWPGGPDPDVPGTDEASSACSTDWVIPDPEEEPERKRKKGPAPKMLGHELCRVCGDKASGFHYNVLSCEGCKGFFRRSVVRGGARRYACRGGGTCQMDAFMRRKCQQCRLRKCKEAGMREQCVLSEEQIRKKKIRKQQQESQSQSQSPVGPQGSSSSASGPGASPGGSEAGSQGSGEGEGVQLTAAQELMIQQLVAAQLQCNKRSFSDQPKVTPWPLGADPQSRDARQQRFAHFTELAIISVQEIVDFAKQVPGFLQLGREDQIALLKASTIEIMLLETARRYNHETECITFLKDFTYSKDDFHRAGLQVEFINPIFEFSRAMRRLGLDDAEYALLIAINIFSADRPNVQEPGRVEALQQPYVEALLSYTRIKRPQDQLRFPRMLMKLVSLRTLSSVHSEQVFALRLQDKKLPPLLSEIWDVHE
Protocol: (§1) After 6 days, medium is removed and replaced with fresh medium containing the same concentrations of the compound T0901317. Readouts of AP activity are performed at several time points after the start of the experiment, typically after 7, 10 and 13 days. Up-regulation of alkaline phosphatase activity is read as follows: medium is removed from the monolayers, 15 μl MUP is added to each well, the plates are incubated for 15 min at 37° C. and then read for AP activity using a fluorescence plate reader (Fluostar, BMG).
as §1, with “MPCs are seeded on day 0 at 1000 cells per well of a 384 well plate and co-infected the next day using AdC51-hCAR (MOI 250) and different MOIs of Ad5-NR1H2 (MOI 2000, 666). On day 1, 9 concentrations (1.52E-9M, 4.57E-9M, 1.37E-8M, 4.12E-8M, 1.23E-7M, 3.7E-7M, 1.11E-6M, 3.33E-6M, 1E-5M) of the compound GW3965 with fixed vehicle concentration (DMSO at final concentration of 0.161%) are added to the wells. After” for “After”, “GW3965.” for “T0901317.”
as §1, with “APD.” for “T0901317.”

RUNX2 = experiment: DN-RUNX2 assay: interference with up-regulation of AP activity in MPCs; format: cell-based, human; conditions: Ad-NR1H3 + T0901317 plus Ad-DN-RUNX2 versus Ad-luciferase, 6 days post infection
Excerpt: Since the osteogenic activity of BMP2 is known to work through RUNX2, Ad-BMP2 and Ad-DN-RUNX2 viruses are used to develop the DN-RUNX2 assay. The human full-length RUNX2 cDNA is obtained by RT-PCR from total RNA extracted from MPCs. The 5′ part of the cDNA encoding amino acids 1-214 is obtained by PCR from the cloned RUNX2 cDNA and subcloned in an adenoviral adapter plasmid. The identity of the cloned fragment is verified by sequencing. This plasmid is used to generate an adenoviral stock, as described in WO 9964582.
MPCs are seeded at 1000 cells/well in a 384 well plate and infected the next day with adenoviruses encoding hCAR (MOI 250), Ad-BMP2 (MOIs 6000, 2000, 666) and one of Ad-DN-RUNX2 or Ad-luciferase (MOIs 2000 or 666). Alkaline phosphatase activity is read 6 days post infection.
The DN-RUNX2 assay is used to test the involvement of RUNX2 in the up-regulation of AP activity by NR5A2, NR1H3, and ESRRG. MPCs are seeded at 1000 cells/well in a 384 well plate and are infected the next day with adenoviruses encoding hCAR (MOI 250), Ad-BMP2, Ad-ESRRG, Ad-NR5A2, Ad-NR1H3 (MOIs 6000, 2000, 666) and one of Ad-DN-RUNX2 or Ad-luciferase (MOI 1000 or MOIs 2000 and 666) (see FIG. 19(C)). Alkaline phosphatase activity is read 6 days post infection and raw data are analysed.

SMILES: O=S(=O)(c1ccccc1)N(CC(F)(F)F)c1ccc(C(O)(C(F)(F)F)C(F)(F)F)cc1 [T0901317]
- up-regulation of alkaline phosphatase (AP) activity (NR1H2): dose-response relation
- up-regulation of AP activity induced by NR1H3 in the presence of T0901317, under overexpression of DN-RUNX2 (RUNX2): significantly reduces
